Tests used:
[1] = tested on: HL-60; test: Cytotoxicity against human HL60 cells assessed as reduction in cell viability measured after 48 hrs by MTS assay; format: functional, cell-based; conditions: HL-60, 48 h
[2] = tested on: MCF7; test: Cytotoxicity against human MCF7 cells assessed as reduction in cell viability measured after 48 hrs by MTS assay; format: functional, cell-based; conditions: MCF7, 48 h
[3] = tested on: SW480; test: Cytotoxicity against human SW480 cells assessed as reduction in cell viability measured after 48 hrs by MTS assay; format: functional, cell-based; conditions: SW480, 48 h
[4] = Cytotoxicity against human […] cells assessed as reduction in cell viability measured after 48 hrs by MTS assay; format: functional, cell-based
[5] = tested on: A549; test: Cytotoxicity against human A549 cells assessed as reduction in cell viability measured after 48 hrs by MTS assay; format: functional, cell-based; conditions: A549, 48 h
[6] = tested on: RAW264.7; test: Anti-inflammatory activity in mouse RAW264.7 cells assessed as inhibition of LPS-induced nitric oxide production measured after 18 hrs by Griess assay; format: functional, cell-based; conditions: RAW264.7, 18 h
[7] = Cytotoxicity against mouse RAW264.7 cells assessed as cell viability measured after 48 hrs by MTS assay relative to control; format: cell-based; conditions: read-out: Activity

SMILES | IC50 [1] [µM] | IC50 [2] [µM] | IC50 [3] [µM] | IC50 [4] [µM] | IC50 [5] [µM] | IC50 [6] [µM] | viability at 48 h [7] [%]
C[C@]12[C@H]3[C@@H](C[C@@]4(C)[C@H](c5ccoc5)C[C@H]5O[C@]54[C@]3(C)O)O[C@@]1(O)C=C[C@]1(C)OC(=O)[C@H](O)[C@]21O | 2.3 | 2.1 | 1.5 | > 10 | > 10 |  | 
C[C@]12[C@H](c3ccoc3)C[C@H]3O[C@]31[C@](C)(O)[C@@H]1[C@H](O[C@@]3(O)C=C[C@]4(C)OC(=O)[C@H](O)[C@]4(O)[C@@]13C)[C@@H]2O | > 10 | > 10 | > 10 | > 10 | > 10 |  | 
CC(=O)O[C@H]1[C@H]2O[C@H]3C[C@@H](O)[C@]4(C)OC(=O)[C@H](O)[C@]4(O)[C@@]3(C)[C@@H]2[C@@](C)(O)[C@@]23O[C@@H]2C[C@@H](c2ccoc2)[C@]13C | 1.6 | 3.7 | 4 | > 10 | > 10 |  | 
C[C@]12[C@H](C[C@H](O)[C@]3(C)OC(=O)[C@H](O)[C@]13O)O[C@@H]1C[C@@]3(C)[C@H](c4ccoc4)C[C@H]4O[C@]43[C@](C)(O)[C@H]12 | > 10 | > 10 | > 10 | > 10 | > 10 |  | 
CC1(C)OC(=O)C=C[C@]2(C)[C@H]3CC[C@@]4(C)[C@H](C5=CC(=O)NC5=O)C[C@H]5O[C@]54[C@]3(C)C(=O)C[C@@H]12 | > 10 | > 10 | > 10 | > 10 | > 10 | 28.3 | > 100
CC(=O)O[C@@H]1C[C@@H]2O[C@@H]3C[C@@]4(C)[C@H](c5ccoc5)C[C@H]5O[C@]54[C@](C)(O)[C@H]3[C@]2(C)[C@@]2(O)[C@@H](O)C(=O)O[C@@]12C | > 10 | 2.4 | 3.7 | > 10 | > 10 |  | 
C[C@]12[C@H]3[C@@H](C[C@@]4(C)[C@H](C5=CCNC5=O)C[C@H]5O[C@]54[C@]3(C)O)O[C@@]1(O)C=C[C@]1(C)OC(=O)[C@H](O)[C@]21O | > 10 | > 10 | > 10 | > 10 | > 10 |  | 
CC1(C)OC(=O)C=C[C@]2(C)[C@H]3CC[C@]4(C)[C@@H](C(=O)C[C@H]4c4ccoc4)[C@]3(C)[C@H](O)C[C@@H]12 | > 10 | > 10 | > 10 | > 10 | > 10 |  | 
C[C@]12[C@H](CC(=O)[C@]3(C)OC(=O)[C@H](O)[C@]13O)O[C@H]1[C@H]2[C@@](C)(O)[C@@]23O[C@@H]2C[C@@H](c2ccoc2)[C@]3(C)[C@H]1O | 0.9 | 3 | 2.5 | > 10 | > 10 |  | 
C[C@]12[C@H](CC(=O)[C@]3(C)OC(=O)[C@H](O)[C@]13O)O[C@@H]1C[C@@]3(C)[C@H](c4ccoc4)C[C@H]4O[C@]43[C@](C)(O)[C@H]12 | 0.8 | 4 | 2.3 | > 10 | > 10 |  | 
CO[C@]12C=C[C@]3(C)OC(=O)[C@H](O)[C@]3(O)[C@@]1(C)[C@H]1[C@@H](C[C@@]3(C)[C@H](c4ccoc4)C[C@H]4O[C@]43[C@]1(C)O)O2 | > 10 | > 10 | > 10 | > 10 | > 10 |  | 
C[C@]12[C@H](C[C@H](O)[C@]3(C)OC(=O)[C@H](O)[C@]13O)O[C@H]1[C@H]2[C@@](C)(O)[C@@]23O[C@@H]2C[C@@H](c2ccoc2)[C@]3(C)[C@H]1O | > 10 | > 10 | > 10 | > 10 | > 10 |  | 
CC1(C)OC(=O)C=C[C@]2(C)[C@H]3CC[C@@]4(C)[C@H](C5=CCNC5=O)C[C@H]5O[C@]54[C@]3(C)OC(=O)C[C@@H]12 | > 10 | > 10 | > 10 | > 10 | > 10 |  | 
CO[C@@H]1C=C([C@@H]2C[C@H]3O[C@@]34[C@@]2(C)CC[C@@H]2[C@@]3(C)C=CC(=O)OC(C)(C)[C@@H]3CC(=O)O[C@]24C)C(=O)O1 | > 10 | > 10 | > 10 | > 10 | > 10 |  | 
CC1(C)OC(=O)C=C[C@]2(C)[C@H]3C[C@H](O)[C@@]4(C)[C@H](c5ccoc5)C[C@H]5O[C@]54[C@]3(C)OC(=O)C[C@@H]12 | > 10 | > 10 | > 10 | > 10 | > 10 |  | 
CO[C@@H]1C=C([C@@H]2C[C@H]3O[C@@]34[C@@]2(C)C[C@H]2O[C@@]3(O)C=C[C@]5(C)OC(=O)[C@H](O)[C@]5(O)[C@@]3(C)[C@@H]2[C@@]4(C)O)C(=O)O1 | > 10 | > 10 | > 10 | > 10 | > 10 |  | 
CC1(C)C(=O)C=C[C@]2(C)C3=CC[C@@]4(C)[C@H](C5=CCNC5=O)C[C@H]5O[C@]54[C@]3(C)C(=O)C[C@@H]12 | > 10 | > 10 | > 10 | > 10 | > 10 |  | 
CC(=O)O[C@@H]1C[C@]2(C)[C@@H](C(=O)C[C@H]2c2ccoc2)[C@]2(C)[C@H](O)C[C@H]3C(C)(C)OC(=O)C=C[C@]3(C)[C@@H]12 | > 10 | > 10 | > 10 | > 10 | > 10 |  | 
CC(=O)O[C@H]1[C@@H](OC(C)=O)[C@]2(C)[C@H]([C@H](O)C[C@@]3(C)[C@H](c4ccoc4)C[C@H]4O[C@@]423)[C@@]2(C)C=CC(=O)OC(C)(C)[C@H]12 | > 10 | > 10 | > 10 | > 10 | > 10 |  | 
CC(=O)O[C@H]1C(=O)O[C@@]2(C)[C@H](OC(C)=O)C[C@@H]3O[C@@H]4C[C@@]5(C)[C@H](c6ccoc6)C[C@H]6O[C@]65[C@](C)(O)[C@H]4[C@]3(C)[C@@]12O | > 10 | 2.1 | 2.3 | > 10 | > 10 |  | 
CC1(C)OC(=O)C=C[C@]2(C)[C@H]3[C@H](O)C[C@@]4(C)[C@H](c5ccoc5)C[C@H]5O[C@]54[C@]3(C)C(=O)C[C@@H]12 | > 10 | > 10 | > 10 | > 10 | > 10 |  | 
CO[C@@H]1C=C([C@@H]2C[C@H]3O[C@@]34[C@@]2(C)C[C@H]2O[C@H]3C[C@H](O)[C@]5(C)OC(=O)[C@H](O)[C@]5(O)[C@@]3(C)[C@@H]2[C@@]4(C)O)C(=O)O1 | > 10 | > 10 | > 10 | > 10 | > 10 |  | 
C[C@]12[C@H](C[C@@H](O)[C@]3(C)OC(=O)[C@H](O)[C@]13O)O[C@@H]1C[C@@]3(C)[C@H](c4ccoc4)C[C@H]4O[C@]43[C@](C)(O)[C@H]12 | 0.6 | 0.9 | 0.9 | > 10 | > 10 |  | 
